pIC50: −log10 of the molar value. Entries after “also recorded” stand apart in the source; their conditions may differ. Like-named read-outs stand apart in the source and are kept apart here.
What was measured:
rat polymerase β = rat polymerase β (Rattus norvegicus, UniProt P06766); type: biochemical
Procedure: To a 50 μL of 62.5 mM 2-amino-2-methyl-1,3-propanediol buffer, pH 8.6, containing 10 mM MgCl2, 1 mM DTT, 100 μg/mL BSA, 6.25 μM dNTPs including 0.04 Ci/mmol [^3H]dTTP, and 0.25 mg/mL activated calf thymus DNA was added 6 μL of a solution containing each test compound and 4 μL of recombinant rat liver DNA polymerase β preparation (6.9 units, 4.8×10^4 units/mg). After incubation at 37° C. for 60 min, the radiolabeled DNA product was collected on DEAE-cellulose paper (DE-81), dried, and rinsed successively with 0.4 M K2HPO4, pH 9.4, and 95% ethanol for radioactivity determination.

[1] = target: human pol sigma (pol sigma-1) (Homo sapiens, UniProt Q5XG87); assay: inhibition of human pol sigma; type: biochemical
[2] = target: T1, yeast polymerase σ (Trf4, pol sigma-I) (Saccharomyces cerevisiae, UniProt P53632); assay: in vitro primer extension assay (5'-32P dT16 primer / poly dA template) for polymerase σ inhibition; type: biochemical, yeast (S. cerevisiae); details: for inhibition of polymerase σ in primer extension assay (FIG. 3), in words: 10 μM test compound, 5 min, dTTP, Mg2+; for concentration level of yeast pol sigma inhibition, in words: yeast pol sigma in vitro
T1 construct: His6 (peptide tag containing six histidines); made in house; host or cells: E. coli
T1 sequence (P53632 1-584): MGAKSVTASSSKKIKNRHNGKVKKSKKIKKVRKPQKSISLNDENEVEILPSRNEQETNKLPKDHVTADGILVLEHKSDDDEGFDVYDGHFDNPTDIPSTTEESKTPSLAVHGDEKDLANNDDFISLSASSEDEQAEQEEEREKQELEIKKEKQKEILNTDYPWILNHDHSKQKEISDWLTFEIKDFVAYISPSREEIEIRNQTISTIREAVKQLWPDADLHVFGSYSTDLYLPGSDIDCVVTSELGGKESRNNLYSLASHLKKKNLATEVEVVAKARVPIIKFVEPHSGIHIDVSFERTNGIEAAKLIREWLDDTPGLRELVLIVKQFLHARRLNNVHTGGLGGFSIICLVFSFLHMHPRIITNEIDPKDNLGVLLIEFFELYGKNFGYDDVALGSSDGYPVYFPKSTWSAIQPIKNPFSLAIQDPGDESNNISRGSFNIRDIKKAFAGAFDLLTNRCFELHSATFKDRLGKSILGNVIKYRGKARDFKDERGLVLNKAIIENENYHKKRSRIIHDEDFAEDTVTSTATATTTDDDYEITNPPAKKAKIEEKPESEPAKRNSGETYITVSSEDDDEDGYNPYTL
Procedure: Due to the predicted structural similarity between pol sigma and pol β (Aravind and Koonin, 1999, Nucleic Acids Research 27: 1609-1618) several known β polmerase inhibitors were tested to determine if they would inhibit pol sigma in vitro. […] The template primer was incubated in the presence of dTTP, Mg^2+ and 10 μM test compound for 5 min. […] Lane 1 of FIG. 3 is a control with only the DMSO solvent added to the poly dA/ oligo dT assay, the remaining lanes represent reactions run in the presence of one of the β polmerase inhibitors.
The assay system that has been employed to date employs a dT16 primer annealed to a poly dA template (average length 282 nucleotides). Primer elongation as a consequence of the addition of T residues (in a distributive fashion) has been monitored by polyacrylamide gel electrophoresis. For purposes of screening for inhibitors a variant of the DNA polymerase β this system will be used as follows: […]

[3] = test system: TRF4-deficient yeast (trf4 single mutants); assay: yeast spot growth assay, sensitivity to camptothecin; type: cell-based, S. cerevisiae (yeast)
Procedure: Spots represent serial 10-fold dilutions of saturated yeast cultures spotted onto Petri plates and incubated at 30° C. for 2 days in the presence of 10 ug/ml of camptothcin (FIG. 1A) or absence of drug (FIG. 1B).

P388D1 cells = assay: P388D1 cell viability, camptothecin and ursolic acid alone or together (Trypan Blue, hemacytometer); details: 6 hr incubation, 1 μM camptothecin, 0.5 μM ursolic acid
From the text: (§1) Viable cells were scored by the use of a hemacytometer plate after straining with Trypan Blue.

[4] = as above; details: mouse, % viability, 6 hr incubation, 1 μM camptothecin, 0.5 μM ursolic acid
From the text: as §1

Chain of human pol sigma (pol sigma-1) (Q5XG87 whole entry): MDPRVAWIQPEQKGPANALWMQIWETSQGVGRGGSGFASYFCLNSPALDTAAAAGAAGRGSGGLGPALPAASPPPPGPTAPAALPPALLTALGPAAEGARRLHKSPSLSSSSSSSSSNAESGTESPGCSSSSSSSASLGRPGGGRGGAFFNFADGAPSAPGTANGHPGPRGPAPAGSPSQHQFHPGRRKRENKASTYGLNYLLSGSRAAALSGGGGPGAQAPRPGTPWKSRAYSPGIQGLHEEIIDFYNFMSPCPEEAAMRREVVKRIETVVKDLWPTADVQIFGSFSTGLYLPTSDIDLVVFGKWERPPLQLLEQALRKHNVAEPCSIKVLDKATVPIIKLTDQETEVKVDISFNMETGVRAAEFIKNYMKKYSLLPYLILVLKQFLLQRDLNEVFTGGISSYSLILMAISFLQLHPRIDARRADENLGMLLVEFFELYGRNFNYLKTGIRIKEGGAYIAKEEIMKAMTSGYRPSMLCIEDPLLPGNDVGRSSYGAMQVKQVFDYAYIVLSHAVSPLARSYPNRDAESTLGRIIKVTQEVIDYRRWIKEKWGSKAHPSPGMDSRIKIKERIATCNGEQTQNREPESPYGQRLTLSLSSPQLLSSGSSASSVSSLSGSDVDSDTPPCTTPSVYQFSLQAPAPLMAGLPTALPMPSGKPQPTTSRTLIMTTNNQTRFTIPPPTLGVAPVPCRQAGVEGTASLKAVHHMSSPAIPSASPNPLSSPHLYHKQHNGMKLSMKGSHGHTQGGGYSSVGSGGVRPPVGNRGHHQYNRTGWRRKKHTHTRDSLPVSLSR

| SMILES | rank order of potencies for rat polymerase β (rat polymerase β; rat polymerase β) | inhibitory activity against human pol sigma, in words [1] | pIC50 [2] | pol sigma polymerase activity observed in presence of compound ([2]; 10 uM concentration) | inhibition of polymerase σ in primer extension assay (FIG. 3), in words [2] | concentration level of yeast pol sigma inhibition, in words [2] | rank order of potencies for rat polymerase β (rat polymerase β) | sensitivity of pol sigma-deficient yeast relative to wild-type strains, in words ([3]; 10 ug/ml, 30° C., 2 days, trf4::HIS3 and mcd1-1) | sensitivity of yeast cells lacking TRF4 to the agent relative to wild type ([3]; yeast cells lacking TRF4 (FIG. 1)) | toxicity to P388D1 cells, in words (P388D1 cells) | viability at 6 h ([4]; P388D1 cells (suspension culture), Experiment 1, P388D1 cells) | viability at 6 h ([4]; P388D1 cells (suspension culture), Experiment 2, P388D1 cells) | viability at 6 h ([4]; Experiment 1, P388D1 cells) | viability at 6 h ([4]; Experiment 2, P388D1 cells) | concentration level of yeast pol sigma inhibition, in words ([2]; listed as Ursolic acid) |
| --- | --- | --- | --- | --- | --- | --- | --- | --- | --- | --- | --- | --- | --- | --- | --- |
| C/C(=C\CC[C@@H](C)[C@@H]1CC[C@]2(C)C3=CC[C@H]4C(C)(C)[C@@H](O)CC[C@]4(C)[C@H]3CC[C@@]12C)C(=O)O [(24E)-3beta-hydroxy-7,24-euphandien-26-oic acid] | ursolic acid >betulinic acid >> 3β-hydroxy-7,24-euphandien-26-oic acid | inhibitory activity; also recorded: active, albeit only at micromolar concentrations; also recorded: also work to inhibit human pol sigma-1 | ~6.30 | no activity whatsoever | most potent of the species tested | nanomolar level inhibitor |  |  |  |  |  |  |  |  |  |
| C=C(C)[C@@H]1CC[C@]2(C(=O)O)CC[C@]3(C)[C@H](CC[C@@H]4[C@@]5(C)CC[C@H](O)C(C)(C)[C@@H]5CC[C@]43C)[C@@H]12 [betulinic acid] |  |  |  |  | showing activity | micromolar concentrations | ursolic acid >betulinic acid >> 3β-hydroxy-7,24-euphandien-26-oic acid |  |  |  |  |  |  |  |  |
| CC[C@@]1(O)C(=O)OCc2c1cc1n(c2=O)Cc2cc3ccccc3nc2-1 [camptothecin] |  |  |  |  |  |  |  | hypersensitive | 10,000 fold | minimal toxicity | 84% | 77% |  |  |  |
| C[C@H]1[C@H](C)CC[C@]2(C(=O)O)CC[C@]3(C)C(=CC[C@@H]4[C@@]5(C)CC[C@H](O)C(C)(C)[C@@H]5CC[C@]43C)[C@H]12 [ursolic acid] |  | inhibitory activity |  |  | showing activity | micromolar concentrations | ursolic acid >betulinic acid >> 3β-hydroxy-7,24-euphandien-26-oic acid |  |  | minimal toxicity |  |  | 88% | 77% | inhibits yeast polymerase σ |

— patent US20040029906A1, “Inhibitors of dna polymerase sigma” (priority 2003, published 2004)
